Data published in ChEMBL document CHEMBL1201862, “PubChem BioAssay data set” (2004).
The source made the active and inactive calls.

Experiments:
Assay type in all cases: functional
HeLa = assay: ATP-based viability loss in HeLa cells – cell-based, CellTiter-Glo luminescence, cherry-pick samples, cytotoxicity control for MITF activator project, dose response (AID 540259); conditions: Homo sapiens
[1] = target: Glucose-6-phosphate 1-dehydrogenase (Homo sapiens, UniProt P11413); assay: inhibition of Homo sapiens G6PD, dose series – biochemical, fluorescence, selectivity assay for P. falciparum G6PD inhibitor project, dose response (AID 504792)
Chain of Glucose-6-phosphate 1-dehydrogenase (P11413 whole entry): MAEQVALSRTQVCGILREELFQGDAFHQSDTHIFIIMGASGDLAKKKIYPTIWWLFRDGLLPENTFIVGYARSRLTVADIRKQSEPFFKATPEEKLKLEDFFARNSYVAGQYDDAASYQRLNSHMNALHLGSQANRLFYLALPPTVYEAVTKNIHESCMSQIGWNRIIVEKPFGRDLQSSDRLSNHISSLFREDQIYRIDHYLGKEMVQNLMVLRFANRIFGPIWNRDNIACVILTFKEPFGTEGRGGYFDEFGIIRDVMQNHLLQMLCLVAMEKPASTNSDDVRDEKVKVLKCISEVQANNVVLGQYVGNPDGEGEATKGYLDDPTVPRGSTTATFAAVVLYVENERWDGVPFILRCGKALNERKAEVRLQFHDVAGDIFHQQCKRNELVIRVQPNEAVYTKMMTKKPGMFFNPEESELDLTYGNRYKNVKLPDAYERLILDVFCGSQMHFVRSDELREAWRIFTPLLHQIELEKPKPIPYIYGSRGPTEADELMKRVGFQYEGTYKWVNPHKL

[2] = target: T1, Endoribonuclease toxin MazF (Escherichia coli K-12, UniProt P0AE70); assay: activation of MazEF endoribonuclease cleavage – biochemical, fluorescence, single-stranded RNA substrate, uHTS hits, dose response (AID 588481)
T1 sequence (P0AE70 whole entry): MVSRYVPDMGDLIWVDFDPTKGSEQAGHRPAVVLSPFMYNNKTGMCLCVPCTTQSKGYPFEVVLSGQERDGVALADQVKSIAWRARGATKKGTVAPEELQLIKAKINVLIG

[3] = target: T1, Endoribonuclease toxin MazF; assay: substrate-only fluorescence increase artefacts – biochemical, single-stranded RNase substrate, counter-screen for MazEF activator project, dose response (AID 588502)
Genome polyprotein = Genome polyprotein (dengue virus type 2, UniProt P29990); assay: flavivirus cap methylation enzyme inhibition – biochemical, confirmation dose response, primary screen (AID 588689)
Chain of Genome polyprotein (P29990 2492-3391 limits assumed): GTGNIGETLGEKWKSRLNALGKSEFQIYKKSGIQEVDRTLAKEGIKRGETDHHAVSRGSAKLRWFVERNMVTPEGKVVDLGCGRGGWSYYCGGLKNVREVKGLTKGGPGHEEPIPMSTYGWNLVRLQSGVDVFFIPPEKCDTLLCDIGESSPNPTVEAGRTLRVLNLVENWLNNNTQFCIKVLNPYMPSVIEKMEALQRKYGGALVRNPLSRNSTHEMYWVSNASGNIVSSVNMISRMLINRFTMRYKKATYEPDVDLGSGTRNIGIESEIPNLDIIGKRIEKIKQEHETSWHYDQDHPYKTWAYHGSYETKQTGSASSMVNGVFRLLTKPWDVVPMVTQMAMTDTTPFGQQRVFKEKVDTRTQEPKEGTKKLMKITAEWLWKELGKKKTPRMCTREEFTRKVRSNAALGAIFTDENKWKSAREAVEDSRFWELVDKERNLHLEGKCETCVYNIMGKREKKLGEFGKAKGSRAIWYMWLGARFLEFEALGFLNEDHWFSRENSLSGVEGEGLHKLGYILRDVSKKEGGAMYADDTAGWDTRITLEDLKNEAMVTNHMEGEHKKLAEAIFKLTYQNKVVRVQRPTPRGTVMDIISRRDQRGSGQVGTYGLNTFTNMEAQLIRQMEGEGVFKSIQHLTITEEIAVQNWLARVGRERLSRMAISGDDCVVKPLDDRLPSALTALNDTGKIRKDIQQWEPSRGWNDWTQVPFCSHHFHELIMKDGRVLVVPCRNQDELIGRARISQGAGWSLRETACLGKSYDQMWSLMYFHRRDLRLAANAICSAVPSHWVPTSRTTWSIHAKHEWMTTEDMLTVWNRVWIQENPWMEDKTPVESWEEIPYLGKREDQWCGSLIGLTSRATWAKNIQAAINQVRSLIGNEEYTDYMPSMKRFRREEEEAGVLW

[4] = target: T2, Corticotropin-releasing factor receptor 2/Corticotropin-releasing factor-binding protein (Homo sapiens, UniProt P24387+Q13324); assay: activators of CRF receptor 2 with binding protein – uHTS hits, confirmation (AID 602473); conditions: read-out: EC50_Mean
T2 sequence (Q13324 whole entry): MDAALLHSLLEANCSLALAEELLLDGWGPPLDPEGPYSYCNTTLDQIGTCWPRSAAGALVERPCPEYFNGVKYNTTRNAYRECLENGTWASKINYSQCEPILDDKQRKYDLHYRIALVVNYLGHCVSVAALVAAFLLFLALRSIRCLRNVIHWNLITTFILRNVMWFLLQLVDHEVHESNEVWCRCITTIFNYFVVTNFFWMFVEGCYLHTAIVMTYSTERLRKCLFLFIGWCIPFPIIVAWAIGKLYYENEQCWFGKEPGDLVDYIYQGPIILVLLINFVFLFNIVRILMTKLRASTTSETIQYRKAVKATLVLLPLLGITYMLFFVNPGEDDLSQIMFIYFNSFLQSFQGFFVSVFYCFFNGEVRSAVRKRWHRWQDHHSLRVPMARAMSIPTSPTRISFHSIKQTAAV
T2 sequence (P24387 whole entry): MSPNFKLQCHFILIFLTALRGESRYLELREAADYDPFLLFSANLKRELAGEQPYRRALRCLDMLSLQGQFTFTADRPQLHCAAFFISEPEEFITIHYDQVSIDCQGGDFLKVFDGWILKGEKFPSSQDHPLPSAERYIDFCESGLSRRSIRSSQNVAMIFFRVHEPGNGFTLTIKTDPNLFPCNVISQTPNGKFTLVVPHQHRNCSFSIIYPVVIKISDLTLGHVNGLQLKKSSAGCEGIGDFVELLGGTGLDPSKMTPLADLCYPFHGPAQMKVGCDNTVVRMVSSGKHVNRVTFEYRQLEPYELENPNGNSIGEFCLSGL

[5] = target: T3, Sentrin-specific protease 1 (Homo sapiens, UniProt Q9P0U3); assay: SENP1 catalytic domain blockers, concentration series – biochemical, kinetic FRET, dose response (AID 651697); conditions: read-out: IC50_Mean
T3 sequence (Q9P0U3 whole entry): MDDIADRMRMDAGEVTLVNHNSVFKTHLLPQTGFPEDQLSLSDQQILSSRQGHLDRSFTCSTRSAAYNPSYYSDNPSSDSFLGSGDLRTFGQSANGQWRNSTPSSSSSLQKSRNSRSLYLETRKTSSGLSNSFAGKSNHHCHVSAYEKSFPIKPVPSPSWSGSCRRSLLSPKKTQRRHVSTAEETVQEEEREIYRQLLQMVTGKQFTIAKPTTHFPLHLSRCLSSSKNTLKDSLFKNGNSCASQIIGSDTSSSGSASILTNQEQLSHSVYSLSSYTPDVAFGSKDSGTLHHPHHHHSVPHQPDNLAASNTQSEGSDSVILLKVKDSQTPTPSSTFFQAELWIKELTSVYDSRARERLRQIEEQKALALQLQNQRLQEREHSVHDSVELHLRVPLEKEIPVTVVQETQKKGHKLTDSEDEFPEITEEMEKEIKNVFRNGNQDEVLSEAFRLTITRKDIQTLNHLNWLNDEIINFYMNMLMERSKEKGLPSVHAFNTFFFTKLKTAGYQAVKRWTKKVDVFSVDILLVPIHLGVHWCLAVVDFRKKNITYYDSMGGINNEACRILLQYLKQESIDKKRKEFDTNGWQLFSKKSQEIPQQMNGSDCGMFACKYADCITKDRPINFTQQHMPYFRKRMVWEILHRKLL

[6] = target: T3, Sentrin-specific protease 1; assay: Dose response confirmation of small molecule inhibitors of the catalytic domain of the SUMO protease, SENP1 in a FRET assay.; conditions: read-out: IC50_Mean
[7] = target: T4, Carboxy-terminal domain RNA polymerase II polypeptide A small phosphatase 1 (Homo sapiens, UniProt Q9GZU7); assay: CTDSP1 inhibitors, concentration-response, biochemical, absorbance readout, ultra-high-throughput screen actives (AID 540297)
T4 sequence (Q9GZU7 whole entry): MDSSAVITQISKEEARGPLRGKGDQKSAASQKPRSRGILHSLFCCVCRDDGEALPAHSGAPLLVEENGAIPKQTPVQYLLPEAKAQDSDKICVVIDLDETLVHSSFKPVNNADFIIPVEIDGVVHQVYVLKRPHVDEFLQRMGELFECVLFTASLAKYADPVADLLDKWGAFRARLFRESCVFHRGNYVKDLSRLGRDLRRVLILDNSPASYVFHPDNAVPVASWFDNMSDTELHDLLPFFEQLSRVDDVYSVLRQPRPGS

[8] = target: T5, Short transient receptor potential channel 4 (Mus musculus, UniProt Q9QUQ5); assay: calcium entry via TRPC4 opening agents – cell-based, HEK293 TRPC4/mu-opioid, Fluo-4 calcium, dose response (AID 434937)
T5 sequence (Q9QUQ5 whole entry): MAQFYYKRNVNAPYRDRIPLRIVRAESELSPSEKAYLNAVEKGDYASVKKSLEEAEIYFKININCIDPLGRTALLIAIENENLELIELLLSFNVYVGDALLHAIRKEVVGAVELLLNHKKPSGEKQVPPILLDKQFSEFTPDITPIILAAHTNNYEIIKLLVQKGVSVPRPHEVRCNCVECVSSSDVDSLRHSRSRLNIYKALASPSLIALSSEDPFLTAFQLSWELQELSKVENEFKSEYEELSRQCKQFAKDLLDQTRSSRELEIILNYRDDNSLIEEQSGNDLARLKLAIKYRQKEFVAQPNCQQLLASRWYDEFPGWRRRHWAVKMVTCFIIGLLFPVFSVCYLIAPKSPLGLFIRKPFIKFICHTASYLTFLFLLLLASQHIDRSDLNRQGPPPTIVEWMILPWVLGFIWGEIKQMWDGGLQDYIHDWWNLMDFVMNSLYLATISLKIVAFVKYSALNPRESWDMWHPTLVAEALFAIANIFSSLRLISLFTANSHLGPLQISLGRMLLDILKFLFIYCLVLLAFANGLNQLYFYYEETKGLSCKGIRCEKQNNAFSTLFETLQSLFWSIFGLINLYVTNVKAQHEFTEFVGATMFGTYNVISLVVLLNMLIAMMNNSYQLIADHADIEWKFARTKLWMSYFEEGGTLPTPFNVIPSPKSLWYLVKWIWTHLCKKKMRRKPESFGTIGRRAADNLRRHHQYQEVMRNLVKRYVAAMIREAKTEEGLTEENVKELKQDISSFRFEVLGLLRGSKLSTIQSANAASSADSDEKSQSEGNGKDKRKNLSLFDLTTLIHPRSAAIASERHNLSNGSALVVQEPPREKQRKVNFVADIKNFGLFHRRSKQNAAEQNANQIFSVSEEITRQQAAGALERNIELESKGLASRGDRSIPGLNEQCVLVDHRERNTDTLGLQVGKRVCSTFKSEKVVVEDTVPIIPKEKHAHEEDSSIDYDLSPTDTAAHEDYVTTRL

SMILES: Cc1cccc(C(=O)Oc2ccc(/C=N/O)cc2)c1
- AC50 (HeLa): 41 µM (active)

SMILES: COc1cc(/C=N/Nc2nncn2N)ccc1OCc1c(C)no[n+]1[O-]
- IC50 [1]: 56.3 µM (inactive)

SMILES: Cc1ccsc1/C=N/NC(=O)Nc1ccccc1
- AC50 (HeLa): 60.6 µM (active)

SMILES: Cn1c(=O)c2[nH]c(-c3ccccc3)c(O)c2n(C)c1=O
- IC50 [1]: > 80 µM (inactive)
- EC50 [2]: 33.8 µM (inactive)
- EC50 [3]: 23.3 µM (inactive)
- IC50 (Genome polyprotein): 18.5 µM (active)
- EC50 [4]: > 53 µM (inactive)
- IC50 [5]: 5.99 µM (active)
- IC50 [6]: 5.27 µM (active)

SMILES: CCCN(CCC)c1ncnc2c1cnn2-c1ccc(OC)cc1
- AC50 (HeLa): 46.3 µM (active)

SMILES: COc1ccc(OC)c(/C=N/N(C)c2ccccc2)c1
- AC50 (HeLa): 44.7 µM (active)

SMILES: Cc1cc(N=NC(=O)c2ccccc2O)c2ccccc2c1O
- IC50 [1]: > 80 µM (inactive)
- IC50 [7]: 5.15 µM (active)

SMILES: Cc1nc2ccccn2c1P(=S)(N1CCCCC1)N1CCCCC1
- EC50 [8]: 5.96 µM (active)
- EC50 [4]: 23.7 µM (active)
